34 compounds from patent publication US6410585B1, “Inhibitors of protein tyrosine phosphatase” (priority 1997, dated 2002) can be followed below.

This experiment deals with T1, rat PTP1 (Rattus norvegicus, UniProt P20417).
T1 construct: a C-terminal truncation of rat PTP1 (amino acid residues 1-322); GST (N, cleaved yes); made in house; host or cells: E. coli strain TG-1 (pGEX-2T)
T1 sequence (P20417 1-322): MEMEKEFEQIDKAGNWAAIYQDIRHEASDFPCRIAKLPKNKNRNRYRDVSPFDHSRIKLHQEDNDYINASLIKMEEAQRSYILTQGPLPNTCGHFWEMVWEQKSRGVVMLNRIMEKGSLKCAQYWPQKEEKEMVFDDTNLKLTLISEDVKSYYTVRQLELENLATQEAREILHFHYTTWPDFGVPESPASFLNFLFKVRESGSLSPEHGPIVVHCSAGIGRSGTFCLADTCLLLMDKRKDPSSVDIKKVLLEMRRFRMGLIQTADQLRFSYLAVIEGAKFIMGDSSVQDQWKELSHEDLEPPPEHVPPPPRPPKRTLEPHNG
As to the kind of experiment: PTP1 assay, pNPP hydrolysis (rate of change in A405). The following applies: pNPP hydrolysis; for inhibition at 1 µM: Conc 1 uM; for inhibition at 10 µM: Conc 10 uM; for inhibition at 100 µM: Conc 100 uM. It is filed as biochemical. An excerpt: PTP1 Assays: A construct, which consisted of a C-terminal truncation of rat PTP1 (amino acid residues 1-322) (cloned from a rat brain library) with an N-terminal glutathione S-transferase (GST) tag and an adjacent thrombin cleavage site, was inserted into vector plasmid pGEX-2T and transformed into E. coli strain TG-1 under the control of a lac promoter (K. L. Guan and J. E. Dixon (1991) Eukaryotic proteins expressed in Escherichia coli: an improved thrombin cleavage and purification procedure of fusion proteins with glutathione S-transferase. Analyt. Biochem. 192: 262-267). The GST-fusion protein was purified on a glutathione agarose affinity column, the GST tag was cleaved with thrombin, and the active enzyme was recovered for use in an assay to identify PTP inhibitors.
PTP1 activity is measured using either p-nitrophenol phosphate (pNPP) or a triphosphopeptide (that matches residues 1142 through 1153 of the β-subunit and the insulin receptor) as substrate in a 96-well microtiter plate format. An assay pH of 7.2 is used for standard assays (measured 405=9800 at pH 7.2).
Standard assays are conducted at room temperature in a total volume of 0.2 ml that contains Hepes buffer (50 mM, pH 7.2), NaCl (50 mM), EDTA (1 mM), DTT (1 mM), bovine serum albumin (1 mg/ml), pNPP (1 mM) and PTP1 (35 ng/ml). Compounds (2 μl of 10 mM solutions) are pipetted into wells of microtiter plates followed by 198 μl of premixed reaction mix (with PTP1 and pNPP added immediately before use). The rate of change in A405 is recorded for 60 min. Two wells on each plate contain DMSO controls and two wells contain sodium orthovanadate (1 mM) which inhibits PTP1-catalyzed hydrolysis of pNPP completely. Data are expressed as percent inhibition relative to the average of the DMSO controls measured on the same microtiter plate.

Setting [1] is: Table 1, read-out: PTP1 Inhib % Inhib.
Setting [2] is: Table 2, read-out: PTP1 Inhib PTP1N. % Inhib.

Each structure is given as a SMILES string. Where two headings read alike, the source gives them in different places.

For `CCCCCNC(=O)C(Cc1ccc(OS(=O)(=O)O)cc1)NC(=O)CCC(=O)O` (stereo not drawn), under setting [1], the inhibition at 1 µM was 3%, the inhibition at 10 µM is 8% and the inhibition at 100 µM was 80%.

With `CCCCCNC(=O)[C@H](Cc1ccc(OC(C(=O)O)C(=O)O)cc1)NC(=O)C(CC(=O)O)NC(=O)CCC(=O)O` (stereo partly drawn), under setting [1], the inhibition at 1 µM came to 27%, the inhibition at 10 µM turned out to be 75% and the inhibition at 100 µM is 96%.

Consider `CCCCCNC(=O)[C@H](Cc1ccc(OC(C(=O)O)C(=O)O)cc1)NC(=O)C(CC(=O)O)NC(=O)OC(C)(C)C` (stereo partly drawn), for which, under setting [1], the inhibition at 1 µM was determined as 13%, the inhibition at 10 µM worked out at 53% and the inhibition at 100 µM was 90%.

In the case of `O=C(O)CCC(=O)NC(Cc1ccc(OC(COO)COO)cc1)C(=O)NCc1ccc2c(c1)OCO2` (stereo not drawn), under setting [1], the inhibition at 1 µM was 12%, the inhibition at 10 µM amounted to 24% and the inhibition at 100 µM turned out to be 63%.

For `O=C(O)CCC(=O)NC(Cc1ccc(OC(COO)COO)cc1)C(=O)NCCCc1ccccc1` (stereo not drawn), under setting [1], the inhibition at 1 µM came out at 8%, the inhibition at 10 µM is 23% and the inhibition at 100 µM worked out at 72%.

On to `O=C(O)CCC(=O)NC(Cc1ccc(OC(COO)COO)cc1)C(=O)NCc1cccc2ccccc12` (stereo not drawn), for which, under setting [1], the inhibition at 1 µM was 7%, the inhibition at 10 µM is 18% and the inhibition at 100 µM came out at 61%.

Regarding `CCCCCCCCCCNC(=O)C(Cc1ccc(OC(COO)COO)cc1)NC(=O)CCC(=O)O` (stereo not drawn), under setting [1], the inhibition at 1 µM was 4%, the inhibition at 10 µM stood at 3% and the inhibition at 100 µM came out at 51%.

As for `NS(=O)(=O)c1ccc(CCNC(=O)C(Cc2ccc(OC(COO)COO)cc2)NC(=O)CCC(=O)O)cc1` (stereo not drawn), under setting [1], the inhibition at 1 µM stood at 4%, the inhibition at 10 µM came to 19% and the inhibition at 100 µM was determined as 63%.

As to `CCCCCNC(=O)C(Cc1ccc(OC(COO)COO)cc1)NC(=O)Nc1ccc(C(=O)O)cc1` (stereo not drawn), under setting [1], the inhibition at 1 µM is 8%, the inhibition at 10 µM worked out at 34% and the inhibition at 100 µM was 81%.

As for `CCCCCNC(=O)[C@H](Cc1ccc(CC(C(=O)O)C(=O)O)cc1)NC(=O)CCC(=O)O`, under setting [1], the inhibition at 1 µM stood at 0%, the inhibition at 10 µM was determined as 3% and the inhibition at 100 µM is 34%.

Regarding `CCCCCNC(=O)C(Cc1ccc(OC(COO)COO)cc1)NC(=O)Nc1cc(C(=O)O)cc(C(=O)O)c1` (stereo not drawn), under setting [1], the inhibition at 1 µM is 16%, the inhibition at 10 µM was found to be 64% and the inhibition at 100 µM turned out to be 94%.

Turning to `O=C(O)CCC(=O)NC(Cc1ccc(OC(COO)COO)cc1)C(=O)NCc1ccc(C(F)(F)F)cc1` (stereo not drawn), under setting [1], the inhibition at 1 µM came out at 4%, the inhibition at 10 µM came to 15% and the inhibition at 100 µM was found to be 66%.

Regarding `CCCCCNC(=O)[C@H](Cc1ccc(OC(C(=O)O)C(=O)O)cc1)NC(=O)[C@H](CCC(=O)O)NC(=O)OC(C)(C)C`, under setting [1], the inhibition at 1 µM was determined as 5%, the inhibition at 10 µM was determined as 34% and the inhibition at 100 µM came to 83%.

In the case of `CCCCCNC(=O)[C@H](Cc1ccc(OC(C(=O)O)C(=O)O)cc1)NC(=O)[C@H](CCC(=O)O)NC(=O)CCC(=O)O`, under setting [1], the inhibition at 1 µM is 25%, the inhibition at 10 µM came to 76% and the inhibition at 100 µM came to 96%.

Consider `CCCCCNC(=O)C(Cc1ccc(OC(COO)COO)cc1)NC(=O)NC(CCC(=O)O)C(=O)O` (stereo not drawn), for which, under setting [1], the inhibition at 1 µM is 17%, the inhibition at 10 µM is 64% and the inhibition at 100 µM worked out at 94%.

As for `CCCCCNC(=O)[C@H](Cc1ccc(OC(C(=O)O)C(=O)O)cc1)NC(=O)CCc1ccc(CC(C(=O)O)C(=O)O)cc1`, under setting [1], the inhibition at 1 µM worked out at 5%, the inhibition at 10 µM was 29% and the inhibition at 100 µM came to 79%.

As to `CCCCCNC(=O)C(Cc1ccc(OC(COO)COO)cc1)NC(=O)N(CC(=O)O)Cc1ccccc1` (stereo not drawn), under setting [1], the inhibition at 1 µM came out at 3%, the inhibition at 10 µM was 25% and the inhibition at 100 µM was found to be 75%.

Consider `CCCC[C@H](NC(=O)[C@H](Cc1ccc(OC(C(=O)O)C(=O)O)cc1)NC(=O)CCC(=O)O)C(N)=O`, for which, under setting [1], the inhibition at 1 µM was determined as 16%, the inhibition at 10 µM amounted to 63% and the inhibition at 100 µM was 93%.

Turning to `O=C(O)CCC(=O)NC(Cc1ccc(OC(COO)COO)cc1)C(=O)NCCOc1ccccc1` (stereo not drawn), under setting [1], the inhibition at 1 µM stood at 1%, the inhibition at 10 µM came to 13% and the inhibition at 100 µM was found to be 57%.

`O=C(O)CCC(=O)NC(Cc1ccc(C(=O)c2ccccc2)cc1)C(=O)NCCc1ccc(OC(COO)COO)cc1` (stereo not drawn): under setting [2], the inhibition at 1 µM came to 1%, the inhibition at 10 µM was determined as 13% and the inhibition at 100 µM came to 60%.

With `CCCCCNC(=O)C(Cc1ccc(OC(COO)COO)cc1)NC(=O)C(Cc1ccc(C(=O)c2ccccc2)cc1)NC(=O)CCc1ccc(O)cc1` (stereo not drawn), under setting [2], the inhibition at 1 µM came to 9%, the inhibition at 10 µM is 47% and the inhibition at 100 µM worked out at 89%.

With `CCCCCNC(=O)C(Cc1ccc(OC(COO)COO)cc1)NC(=O)C(Cc1ccc(OCc2c(Cl)cccc2Cl)cc1)NC(=O)CCC(=O)O` (stereo not drawn), under setting [2], the inhibition at 1 µM was determined as 11%, the inhibition at 10 µM came to 70% and the inhibition at 100 µM is 98%.

As for `CCCCCNC(=O)C(Cc1ccc(OC(COO)COO)cc1)NC(=O)C(Cc1ccc(OCc2c(Cl)cccc2Cl)cc1)NC(=O)OC(C)(C)C` (stereo not drawn), under setting [2], the inhibition at 1 µM was found to be 3%, the inhibition at 10 µM is 12% and the inhibition at 100 µM stood at 85%.

On to `CCCCCNC(=O)C(Cc1ccc(OC(COO)COO)cc1)NC(=O)C(Cc1ccc(OC(C)(C)C)cc1)NC(=O)CCC(=O)O` (stereo not drawn), for which, under setting [2], the inhibition at 1 µM was 37%, the inhibition at 10 µM came to 83% and the inhibition at 100 µM came to 97%.

Take `CCCCCNC(=O)C(Cc1ccc(OC(COO)COO)cc1)NC(=O)C(Cc1ccc(OC(C)(C)C)cc1)NC(=O)OC(C)(C)C` (stereo not drawn): under setting [2], the inhibition at 1 µM stood at 5%, the inhibition at 10 µM is 36% and the inhibition at 100 µM amounted to 89%.

Take `CCCCCNC(=O)C(Cc1ccc(OC(COO)COO)cc1)NC(=O)C(Cc1ccc(OC)cc1)NC(=O)OC(C)(C)C` (stereo not drawn): under setting [2], the inhibition at 1 µM worked out at 8%, the inhibition at 10 µM came to 36% and the inhibition at 100 µM is 90%.

In the case of `CCCCCNC(=O)C(Cc1ccc(OC(COO)COO)cc1)NC(=O)C(Cc1ccc(OC)cc1)NC(=O)CCC(=O)O` (stereo not drawn), under setting [2], the inhibition at 1 µM came out at 32%, the inhibition at 10 µM turned out to be 83% and the inhibition at 100 µM stood at 98%.

Consider `CCCCCNC(=O)C(Cc1ccc(OC(COO)C(=O)O)cc1)NC(=O)NC(Cc1ccccc1)C(=O)O` (stereo not drawn), for which, under setting [2], the inhibition at 1 µM came to 8%, the inhibition at 10 µM turned out to be 57% and the inhibition at 100 µM was determined as 93%.

Consider `CCCCCNC(=O)C(Cc1ccc(OC(COO)COO)cc1)NC(=O)C(Cc1ccc(OCc2ccccc2)cc1)N(C)C(=O)OC(C)(C)C` (stereo not drawn), for which, under setting [2], the inhibition at 1 µM stood at 0%, the inhibition at 10 µM was determined as 0% and the inhibition at 100 µM was 32%.

Regarding `CCCCCNC(=O)C(Cc1ccc(OC(COO)COO)cc1)NC(=O)N(Cc1ccc(CC(=O)O)cc1)Cc1cccc(C(F)(F)F)c1` (stereo not drawn), under setting [2], the inhibition at 1 µM turned out to be 4%, the inhibition at 10 µM is 51% and the inhibition at 100 µM was determined as 92%.

`CCCCCNC(=O)C(Cc1ccc(OC(COO)COO)cc1)NC(=O)NCC(=O)NCC(=O)O` (stereo not drawn): under setting [2], the inhibition at 1 µM is 12%, the inhibition at 10 µM came out at 56% and the inhibition at 100 µM was 93%.

For the compound `CCCCCNC(=O)C(C)(Cc1ccc(OC(C(=O)O)C(=O)O)cc1)NC(=O)CCC(=O)O` (stereo not drawn), under setting [2], the inhibition at 1 µM was 3%, the inhibition at 10 µM came to 6% and the inhibition at 100 µM turned out to be 34%.

Turning to `CCCCCNC(=O)C(Cc1ccc(OC(C(=O)O)C(=O)O)c(F)c1)NC(=O)CCC(=O)O` (stereo not drawn), under setting [2], the inhibition at 1 µM turned out to be 4%, the inhibition at 10 µM stood at 29% and the inhibition at 100 µM is 78%.

As for `CCCCC/C=C/[C@H](Cc1ccc(OC(C(=O)O)C(=O)O)cc1)NC(=O)CCC(=O)O`, under setting [2], the inhibition at 1 µM worked out at 1%, the inhibition at 10 µM came to 14% and the inhibition at 100 µM worked out at 70%.
